According to patent publication US20130096119A1, “Isoquinolin-3-Ylurea Derivatives” (priority 2010, published 2013):
≈ marks a conversion by molar mass, not a printed value.

System: S. pneumoniae ATCC 49619
Experiment: Minimal inhibitory concentration (MIC) by microdilution method (CLSI M7-A7)
Assay type: cell-based, Streptococcus pneumoniae
Conditions: Streptococcus pneumoniae, ATCC49619, cation-adjusted Mueller-Hinton Broth supplemented with 3% (v/v) lysed horse blood
Summary of the method: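 Broth microdilution per CLSI M7-A7 in cation-adjusted Mueller-Hinton broth, supplemented with 3% (v/v) lysed horse blood for S. pneumoniae; MIC reported in mg/l.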

| Structure (SMILES) | MIC [µg/mL] |
| --- | --- |
| CCNC(=O)Nc1cc2cc(NCc3cccc(OCCO)c3)cc(C)c2cn1.Cl [Example 129, 1-ethyl-3-{6-[3-(2-hydroxy-ethoxy)-benzylamino]-8-methyl-isoquinolin-3-yl}-urea hydrochloride] | 16 |
| CCNC(=O)Nc1cc2c(F)c(-c3ccccn3)cc(C)c2cn1 [Example 48, 1-ethyl-3-(5-fluoro-8-methyl-6-pyridin-2-yl-isoquinolin-3-yl)-urea] | 1 (≈ 3.08 µM) |
| CCNC(=O)Nc1cc2cccc(CNc3cc(C)nn3C)c2cn1 [Example 191, 1-{8-[(2,5-dimethyl-2H-pyrazol-3-ylamino)-methyl]-isoquinolin-3-yl}-3-ethyl-urea] | 8 (≈ 23.6 µM) |
| Cc1ccc(-c2ccncc2)c2cc(NC(=O)NCCF)ncc12 [Example 138, 1-(2-fluoro-ethyl)-3-(8-methyl-5-pyridin-4-yl-isoquinolin-3-yl)-urea] | 1 (≈ 3.08 µM) |
| CCNC(=O)Nc1cc2c(-c3cccnc3F)ccc(C)c2cn1 [Example 66, 1-ethyl-3-[5-(2-fluoro-pyridin-3-yl)-8-methyl-isoquinolin-3-yl]-urea] | 4 (≈ 12.3 µM) |
| CCNC(=O)Nc1cc2cccc(Nc3cccc(C(=O)O)c3)c2cn1 [Example 198, 3-[3-(3-ethyl-ureido)-isoquinolin-8-ylamino]-benzoic acid] | 1 (≈ 2.85 µM) |
| CCNC(=O)Nc1cc2cc(-c3cccnc3)cc(C)c2cn1 [Example 16, 1-ethyl-3-(8-methyl-6-pyridin-3-yl-isoquinolin-3-yl)-urea] | 2 (≈ 6.53 µM) |
| CCNC(=O)Nc1cc2cc(NCc3ccc(OC)nc3)cc(C)c2cn1.Cl [Example 196, 1-ethyl-3-{6-[(6-methoxy-pyridin-3-ylmethyl)-amino]-8-methyl-isoquinolin-3-yl}-urea hydrochloride] | 8 |
| CCNC(=O)Nc1cc2cccc(Nc3cccc(C)n3)c2cn1.Cl [Example 155, 1-ethyl-3-[8-(6-methyl-pyridin-2-ylamino)-isoquinolin-3-yl]-urea hydrochloride] | 2 |
| CCNC(=O)Nc1cc2c(F)c(NCc3ccccc3)cc(C)c2cn1 [Example 57, 1-(6-benzylamino-5-fluoro-8-methyl-isoquinolin-3-yl)-3-ethyl-urea] | 0.5 (≈ 1.42 µM) |
| CCNC(=O)Nc1cc2cccc(Nc3ccnc(OC)c3)c2cn1 [Example 180, 1-ethyl-3-[8-(2-methoxy-pyridin-4-ylamino)-isoquinolin-3-yl]-urea] | 4 (≈ 11.9 µM) |
| CCNC(=O)Nc1cc2cc(NC(=O)c3cccc(N(C)C)c3)cc(C)c2cn1 [Example 118, 3-dimethylamino-N-[3-(3-ethyl-ureido)-8-methyl-isoquinolin-6-yl]-benzamide] | 0.06 (≈ 0.153 µM) |
| CCNC(=O)Nc1cc2cccc(Nc3cc(OC)ccn3)c2cn1.Cl [Example 160, 1-ethyl-3-[8-(4-methoxy-pyridin-2-ylamino)-isoquinolin-3-yl]-urea hydrochloride] | 2 |
| CCNC(=O)Nc1cc2cccc(Nc3ccc(C#N)cc3)c2cn1 [Example 174, 1-[8-(4-cyano-phenylamino)-isoquinolin-3-yl]-3-ethyl-urea] | 2 (≈ 6.04 µM) |
| CCNC(=O)Nc1cc2cc(-c3cccc(CN)c3)cc(C)c2cn1 [Example 26, 1-[6-(3-(aminomethyl)-phenyl)-8-methyl-isoquinolin-3-yl]-3-ethyl-urea] | 0.5 (≈ 1.5 µM) |
| CCNC(=O)Nc1cc2c(-c3ccc(CO)nc3)ccc(C)c2cn1 [Example 8, 1-ethyl-3-[5-(6-hydroxymethyl-pyridin-3-yl)-8-methyl-isoquinolin-3-yl]-urea] | 4 (≈ 11.9 µM) |
| CCNC(=O)Nc1cc2cccc(Nc3ccc(C(=O)OC)cn3)c2cn1.Cl [Example 165, 6-[3-(3-ethyl-ureido)-isoquinolin-8-ylamino]-nicotinic acid methyl ester hydrochloride] | 4 |
| CCNC(=O)Nc1cc2cccc(Nc3ncccn3)c2cn1 [Example 152, 1-ethyl-3-[8-(pyrimidin-2-ylamino)-isoquinolin-3-yl]-urea] | 4 (≈ 13 µM) |
| CCNC(=O)Nc1cc2cc(-c3ccccc3O)cc(C)c2cn1 [Example 109, 1-ethyl-3-[6-(2-hydroxy-phenyl)-8-methyl-isoquinolin-3-yl]-urea] | 2 (≈ 6.22 µM) |
| CCNC(=O)Nc1cc2cc(-c3cccnc3Cl)cc(C)c2cn1 [Example 82, 1-[6-(2-chloro-pyridin-3-yl)-8-methyl-isoquinolin-3-yl]-3-ethyl-urea] | 8 (≈ 23.5 µM) |

Results, then the molecule that gave them:

| MIC [µg/mL] | Structure (SMILES) |
| --- | --- |
| 0.5 (≈ 1.37 µM) | CCCNc1cc(Nc2cccnc2)c2cnc(NC(=O)NCC)cc2c1 [Example 238, 1-ethyl-3-[6-propylamino-8-(pyridin-3-ylamino)-isoquinolin-3-yl]-urea] |
| 0.5 (≈ 1.3 µM) | CCNC(=O)Nc1cc2c(-c3cccnc3)ccc(Nc3cccnc3)c2cn1 [Example 224, 1-ethyl-3-[5-pyridin-3-yl-8-(pyridin-3-ylamino)-isoquinolin-3-yl]-urea] |
| 2 (≈ 4.93 µM) | CCNC(=O)Nc1cc2c(N3CCN(C)CC3)ccc(Nc3cccnc3)c2cn1 [Example 277, 1-ethyl-3-[5-(4-methyl-piperazin-1-yl)-8-(pyridin-3-ylamino)-isoquinolin-3-yl]-urea] |
| 2 | CCNC(=O)Nc1cc2cccc(Nc3ccc(CC(=O)NC)cc3)c2cn1.Cl [Example 207, 2-{4-[3-(3-ethyl-ureido)-isoquinolin-8-ylamino]phenyl}-N-methyl-acetamide hydrochloride] |
| 8 (≈ 24.4 µM) | CCNC(=O)Nc1cc2c(-c3ccncn3)ccc(Cl)c2cn1 [Example 286, 1-(8-chloro-5-pyrimidin-4-yl-isoquinolin-3-yl)-3-ethyl-urea] |
| 4 | CCNC(=O)Nc1cc2cccc(COc3cccc(O)c3)c2cn1.Cl [Example 213, 1-ethyl-3-[8-(3-hydroxy-phenoxymethyl)-isoquinolin-3-yl]-urea hydrochloride] |
| 1 | CCNC(=O)Nc1cc2cccc(Nc3cccc(C(=O)NC)c3)c2cn1.Cl [Example 200, 3-[3-(3-ethyl-ureido)-isoquinolin-8-ylamino]-N-methyl-benzamide hydrochloride] |
| 2 (≈ 4.85 µM) | CCNC(=O)Nc1cc2c(-c3cccc(CN)c3)ccc(Nc3cccnc3)c2cn1 [Example 232, 1-(5-(3-(aminomethyl)phenyl)-8-(pyridin-3-ylamino)isoquinolin-3-yl)-3-ethylurea] |
| 0.25 (≈ 0.55 µM) | CCNC(=O)Nc1cc2c(-c3ccnc(C)c3)ccc(Nc3cccc(C(=O)NC)c3)c2cn1 [Example 247, 3-[3-(3-ethyl-ureido)-5-(2-methyl-pyridin-4-yl)-isoquinolin-8-ylamino]-N-methyl-benzamide] |
| 2 | CCNC(=O)Nc1cc2cccc(Nc3ccc(C(=O)NC)cc3)c2cn1.Cl [Example 204, 4-[3-(3-ethyl-ureido)-isoquinolin-8-ylamino]-N-methyl-benzamide hydrochloride] |
| 2 | CCNC(=O)Nc1cc2cccc(Nc3ccc(C(=O)N(C)C)cc3)c2cn1.Cl [Example 203, 4-[3-(3-ethyl-ureido)-isoquinolin-8-ylamino]-N,N-dimethyl-benzamide hydrochloride] |
| 0.5 (≈ 1.13 µM) | CCNC(=O)Nc1cc2c(-c3ccnc(C)c3)ccc(Nc3cccc(C(=O)O)c3)c2cn1 [Example 246, 3-[3-(3-ethyl-ureido)-5-(2-methyl-pyridin-4-yl)-isoquinolin-8-ylamino]-benzoic acid] |
| 1 | CCNC(=O)Nc1cc2c(-c3c[nH]cn3)ccc(C)c2cn1.Cl [Example 280, 1-ethyl-3-[5-(1H-imidazol-4-yl)-8-methyl-isoquinolin-3-yl]urea hydrochloride] |
